Laboratory results reported in US20240165185A1, “COMBINATION OF A MYRTLE EXTRACT AND A TRIPTERYGIUM WILFORDII EXTRACT FOR COMBATING C. ACNES-INDUCED INFLAMMATION” (priority 2021, published 2024).

Experiments:
Type in all cases: cell-based
[1] = test system: production of IL-8 by dendritic cells derived from monocytes; test: Inhibition of IL-8 production by monocyte-derived dendritic cells stimulated with C. acnes membranes; conditions: Homo sapiens, Dendritic cell; C. acnes phylotype IA1 membranes, 24 hours stimulation; dexamethasone 300 ng/ml, myrtle extract 10 μg/ml, Trip extract 25 μg/ml, combination 10 and 25 μg/ml; mean of 3 experiments
Method: (§1) The experiments were performed on co-cultures of immature dendritic cells derived from monocytes, at a final concentration of 1.10^5 cells/ml/well and biofilms or membranes of C. acnes of phylotype IA1 . The monocytes are purified from human blood by negative selection (The EasySep™ Human Monocyte Enrichment Kit, StemCell).
(§2) On Day 0, the monocytes are incubated in a differentiation medium (Gibco Roswell Park Memorial Institute (RPMI), 10% v/v foetal bovine serum (FBS) that has been decomplemented (heated to 56° C. for 30 minutes), 50 ng/ml IL-4 and 100 ng/ml Recombinant Human Granulocyte Macrophage Colony-Stimulating Factor (GM-CSF)). On the 3rd day of culture, half of the medium is replaced by fresh medium. On day 6, the immature dendritic cells are characterised by flow cytometry and stimulated by a biofilm or membranes of C. acnes.
(§3) The membranes of C. acnes are purchased from the Icare laboratory (Saint-Beauzire, France).
The stimulation of the immature dendritic cells derived from monocytes by the membranes of C. acnes is carried out with a dilution to 1/20 of a solution of membranes in the culture medium (RPMI+10% v/v FBS) at a concentration of 0.15 mg/ml. […]
Several cytokines are evaluated in this study. IL-6, IL-8, IL-10, and IL-12p40; these cytokines are quantified in multiplex using the Luminex technology (Bioplex 200, Biorad).

[2] = test system: production of IL-10 by dendritic cells derived from monocytes; test: Inhibition of IL-10 production by monocyte-derived dendritic cells stimulated with C. acnes membranes; conditions: Homo sapiens, Dendritic cell; C. acnes phylotype IA1 membranes, 24 hours stimulation; dexamethasone 300 ng/ml, myrtle extract 10 μg/ml, Trip extract 25 μg/ml, combination 10 and 25 μg/ml; mean of 3 experiments
Method: as §1, §2, §3
(§4) The stimulation of the immature dendritic cells derived from monocytes by the membranes of C. acnes is carried out with a dilution to 1/20 of a solution of membranes in the culture medium (RPMI+10% v/v FBS) at a concentration of 0.15 mg/ml.
(§5) The myrtle extract used in this study is prepared according to example 1. This extract is solubilised and stored at […] in ethanol (10 mg of dry extract prepared according to example 1, in 1 ml of ethanol). […]

[3] = test system: production of IL-12p40 by dendritic cells derived from monocytes; test: Inhibition of IL-12p40 production by monocyte-derived dendritic cells stimulated with C. acnes membranes; conditions: Homo sapiens, Dendritic cell; C. acnes phylotype IA1 membranes, 24 hours stimulation; dexamethasone 300 ng/ml, myrtle extract 10 μg/ml, Trip extract 25 μg/ml, combination 10 and 25 μg/ml; mean of 3 experiments
Method: as §1, §2, §3, §4, §5

[4] = test system: production of IL-6 by dendritic cells derived from monocytes; test: Inhibition of IL-6 production by monocyte-derived dendritic cells stimulated with C. acnes membranes; conditions: Homo sapiens, Dendritic cell; C. acnes phylotype IA1 membranes, 24 hours stimulation; dexamethasone 300 ng/ml, myrtle extract 10 μg/ml, Trip extract 25 μg/ml, combination 10 and 25 μg/ml; mean of 3 experiments
Method: as §1, §2, §3, §4, §5

[5] = test system: production of IL-10 by dendritic cells derived from monocytes; test: Inhibition of IL-10 production by monocyte-derived dendritic cells stimulated with biofilm of C. acnes; conditions: Homo sapiens, Dendritic cell; biofilm of C. acnes phylotype IA1, MOI close to 100, 24 hours stimulation; dexamethasone 300 ng/ml, combination 10 and 25 μg/ml; mean of 3 experiments
Method: as §1, §2
The myrtle extract used in this study is prepared according to example 1. This extract is solubilised and stored at […] in ethanol (10 mg of dry extract prepared according to example 1, in 1 ml of ethanol). The concentration tested is 10 μg/ml.
The extract of Tripterygium wilfordii (Trip extract below) used in this study is prepared according to example 2.

C[C@@H]1C[C@H]2[C@@H]3CCC4=CC(=O)C=C[C@]4(C)[C@@]3(F)[C@@H](O)C[C@]2(C)[C@@]1(O)C(=O)CO [Dexamethasone, dexamethasone]
inhibition at 0.3 µg/mL [1]: 47.6% | inhibition at 0.3 µg/mL [2]: 41.7% | inhibition at 0.3 µg/mL [3]: 79.5% | inhibition at 0.3 µg/mL [4]: 76.8% | inhibition at 0.3 µg/mL [5]: 38.6%
